This is an account of results in US20090076050A1, “SYNERGISTIC TUMOR-KILLING EFFECT OF RADIATION AND BERBERINE COMBINED TREATMENT IN LUNG CANCER” (CHUNG SHAN MEDICAL U., priority 2007, published 2009).

Format in all cases: cell-based, human
Test [1] relates to A549 cells. Briefly: cell cycle distribution by propidium iodide flow cytometry. The note with it: 24 h. The protocol: Flow cytometry was performed by propidium iodide staining (Roche Molecular Biochemical, Indianapolis, USA) according to the manufacturer's instructions. Untreated and treated cells were washed in PBS and fixed in ice-cold ethanol. Fixed cells were pelleted and resuspended in 500 μl of PBS. Then, the cells were stained with propidium iodide and analyzed for cell cycle distribution by flow cytometry with a FACStar caliber (Becton Dickinson) cell sorter. The percentage of each phase was evaluated by Cell-Quest software of the histograms.
For orientation: In flow cytometry, cells or beads pass a laser one at a time.

The next test has as its system LC3-II in A549 cells. Briefly: immunoblotting for LC3-I, LC3-II. To be noted: 24 h after IR combined with increasing concentrations of berberine. The protocol:
The role of apoptosis in the sensitivity of A549 cells to IR induced by berberine was further clarified by DAPI stain. DNA extraction and electrophoresis on agarose gel were carried out as described previously (Solary E, et al. Therapie 2001; 56:511-18). After the indicated treatments, cells were fixed with 3 mL of 4% paraformaldehyde. To stain the cells, 500 μL of a 0.5 μg/mL chilled solution of DAPI (Invitrogen) stain was added and allowed to sit for 5 min. The cells were then rinsed with PBS solution and counted under a fluorescent microscope. For positive control of DNA fragmentation and DAPI stain, A549 cells were treated with 30 μM etoposide for 24 h. […] This contention was further confirmed by the lack of apoptotic DNA fragmentation and activation of caspase-3 and poly-(ADP-ribose) polymerases (PARP) as analyzed by DNA electrophoresis and immunoblotting (FIG. 3B, 3C). After the indicated treatment, the resultant supernatants were separated in 12%˜18% polyacrylamide gels. The blot was incubated with a polyclonal antibody against LC3 (gift from T. Yoshimori), PARP, caspase-3, bcl-2, beclin-1 and β-actin (Santa Cruz biotechnology, USA) for 2 h, and then with an appropriate peroxidase-conjugated secondary antibody (Sigma) for 1 h at 37° C. […] LC3 is localized in autophagosome membranes during amino acid starvation-induced autophagy (Mizushima N, et al. J Cell Biol 2001; 152:657-68.). […]
On the technique in general: In western blotting, separated proteins are transferred to a membrane and probed.

Test [2] deals with A549 cells. Briefly: mitochondrial membrane potential by JC-1 flow cytometry. To be noted: 1.0, 2.5, 5.0 and 10 μM berberine combined with irradiation (6 Gy), 24 h. How it is done: Berberine has been reported to induce cell death in several cancer cells via mitochondrial disruption (Lin J P, et al. World J Gastroenterol 2006; 12:21-28.). Therefore, mitochondrial membrane potential was next measured with JC-1. Mitochondria membrane potential (Δ Ψm), the lipophilic cationic probe fluorochrome JC-1 (Invitrogen) was used. […] After a treatment of radiation (6 Gy) for 24 h in the absence or presence of 1.0-10 μM berberine, cells were rinsed with DMEM, and JC-1 (5 μmol/L) was loaded. Determination of Δ Ψm was also carried out with a FACScan Flow Cytometer. […] It has been reported that depolarized mitochondria would move into autophagic vacuoles in response to appropriate stimulation; thus, mitochondria dysfunction may be a point of overlap between apoptotic and autophagocytic processes (Bras M, et al. Biochemistry (Mosc) 2005; 70:231-39). […] On the other hand, beclin-1 siRNA and 3-MA (autophagy inhibitor) blocked the cell death induced by 5.0 μM berberine combined with 6 Gy IR (p<0.001). As a consequence, berberine sensitized A549 cells to IR damage via inducing autophagic cell death.

The mark [3] stands for this setting: IR (6 Gy) + 5.0 μM berberine, listed as Ber.

For `COc1ccc2cc3[n+](cc2c1OC)CCc1cc2c(cc1-3)OCO2` [berberine, Berberine], the G0/G1 with A549 cells [1] (IR (6 Gy) + 2.5 μM berberine) came out at 45.5 ± 4.96%; in the test on A549 cells [1] (IR (6 Gy) + 5.0 μM berberine), 36.2 ± 4.15%; with A549 cells [1] (IR (6 Gy) + 10 μM berberine), 33.9 ± 4.01%; with A549 cells [1] (IR (6 Gy) + 20 μM berberine), 37.2 ± 4.27%. For the same compound, the G2/M with A549 cells [1] (IR (6 Gy) + 2.5 μM berberine) is reported as 28.8%; in the test on A549 cells [1] (IR (6 Gy) + 2.5 μM berberine, listed as Ber), 28.8 ± 2.91%; with A549 cells [1] (IR (6 Gy) + 5.0 μM berberine), 40.5%; in the test with A549 cells [1] (setting [3]), 40.5 ± 4.55%; in the test with A549 cells [1] (IR (6 Gy) + 10 μM berberine) it was 41.7%; in the test with A549 cells [1] (IR (6 Gy) + 10 μM berberine, listed as Ber), 41.7 ± 3.91%. Moreover, the G2/M in the test on A549 cells [1] (IR (6 Gy) + 20 μM berberine) was 30.5 ± 3.18%. Moreover, the S in the test with A549 cells [1] (IR (6 Gy) + 2.5 μM berberine) turned out to be 20.1 ± 2.26%; in the test with A549 cells [1] (IR (6 Gy) + 5.0 μM berberine), 14.8 ± 2.05%; with A549 cells [1] (IR (6 Gy) + 10 μM berberine), 15.5 ± 1.81%; in the test on A549 cells [1] (IR (6 Gy) + 20 μM berberine) it was 16.7 ± 2.33%. The “sub G1” value with A549 cells [1] (IR (6 Gy) + 2.5 μM berberine) worked out at 5.6 ± 0.18%; in the test on A549 cells [1] (IR (6 Gy) + 5.0 μM berberine), 8.5%; with A549 cells [1] (setting [3]), 8.5 ± 0.22%; with A549 cells [1] (IR (6 Gy) + 10 μM berberine), 8.9 ± 0.25%; with A549 cells [1] (IR (6 Gy) + 20 μM berberine) it was 15.6 ± 1.26%. In addition, the “expression of LC3-II” value in the test with LC3-II in A549 cells is on record as “increased dose-dependently”. Besides, the “mitochondrial membrane potential (JC-1)” value with A549 cells [2] is reported as “great loss of membrane potential”.
